The conditions of series [1]: in vivo; cited from earlier work.
Series [2] concerns diabetics. The series can be described thus: Biological Example A: blood sugar in diabetics and one healthy volunteer after oral Example 5 capsules or s.c. Regular Insulin. The class given is in vivo, human.
Series [3] can be described thus: Biological Example B: serum insulin after oral Example 1 emulsion or s.c. Regular Insulin. It counts as in vivo, human. The text has this: The results are as follows:
For series [4], the system named is diabetics. In words: Biological Example B: blood sugar in diabetics and one healthy volunteer after oral Example 1 liquid microemulsion, Regular Insulin or Diabenase. The note with it: for response of case numbers 1 and 8 (in words): 500 mg tablets per os / 20 units s.c.
Procedure: An appropriate amount of the microemulsion is given in a liquid form per os together with 10 ml of MCT (MCT is a trade mark for a medium chained triglyceride solution by Mead-Johnson & Co. Evansville, Ind., U.S.A.). […] Each ml of the insulin-containing formulation contains approximately 5 units of bovine insulin.
Twelve diabetics (9 IDDM and 3 NIDDM) and one healthy volunteer participate in the study. […] Each subject is given one unit of insulin per kg body weight in the form described above per os.
Series [5] is described as follows: Biological Example A: serum insulin after oral Example 5 capsules or s.c. Regular Insulin (radioimmunoassay). The class given is in vivo, human. The protocol: A total of 17 diabetics (8 Insulin-Dependent and 9 Non-Insulin-Dependent diabetics) and one healthy volunteer are fasted overnight. […] Each capsule contains approximately 10 U of bovine insulin and each subject is given, orally, a dose equivalent to approximately one unit per kg body weight, with about 250 ml of water. Blood sugar levels are measured on blood samples obtained by pricking the finger-tip using a HAEMOGLUKOTEST set 20-800R and a REFLOLUX apparatus (Boehringer Mannheim GmbH, West Germany). In a few cases, serum insulin levels are measured using a radioimmunoassay method. For the serum insulin analyses, the serum samples are decanted into TRASYLOL-containing test tubes and stored at -20° to -35° C. until analysed. (TRASYLOL is a trade mark of Bayer for aprotinin proteinase inhibitor.)

The mark [6] stands for this setting: 15 Units s.c., case 18 IDDM, 0 h (baseline).
The mark [7] stands for this setting: 15 Units s.c., case 18 IDDM, 1.0 h.
[8] abbreviates: 15 Units s.c., case 18 IDDM, 2.0 h.
Setting [9] is: 15 Units s.c., case 12 IDDM, 0 h (baseline).
The mark [10] stands for this setting: 15 Units s.c., case 12 IDDM, 1 h.
The mark [11] stands for this setting: 15 Units s.c., case 12 IDDM, 3 h.
Where [12] appears, read: 15 Units s.c., case 12 IDDM, 4 h.
[13] abbreviates: 20 Units s.c., case 11 IDDM, 0.5 h.
The mark [14] stands for this setting: 20 Units s.c., case 11 IDDM, 3 h.
[15] abbreviates: 20 Units s.c., case 11 IDDM, 4 h.

Values joined by “and” are separate entries in the source; they are usually repeats but may differ in a detail not shown here. Equal entries are not always repeated.

One may read the LD50 as the dose expected to kill half of the subjects tested. For Sorbitan trioleate, the LD50 in series [1] was over 40000 mg/kg.

With Sorbitan monopalmitate, in series [1], the LD50 was over 16000 mg/kg.

For “Regular Insulin: Regular Insulin (Green Cross Co. of Seoul, Korea), subcutaneously injected”, the “response to subcutaneously injected insulin (in words)” value in the series with diabetics [2] (5 to 20 units s.c., case nos. 2, 5, 6, 10, 14) is “respond poorly”. Also, the “Blood Sugar” value was 259 mg/dL with diabetics [2] (5 units s.c., case 6 NIDDM, 0 h (baseline)); 376 mg/dL in the series on diabetics [2] (5 units s.c., case 6 NIDDM, 2 h); 298 mg/dL with diabetics [2] (5 units s.c., case 6 NIDDM, 3 h); 171 mg/dL with diabetics [2] (15 units s.c., case 5 IDDM, 0 h (baseline)); 196 mg/dL in the series with diabetics [2] (15 units s.c., case 5 IDDM, 1 h); 161 mg/dL with diabetics [2] (15 units s.c., case 5 IDDM, 2 h). Besides, the “Blood Sugar” value was 170 mg/dL in the series on diabetics [2] (15 units s.c., case 5 IDDM, 3 h); 216 mg/dL and 330 mg/dL and 312 mg/dL in the series on diabetics [2] (20 units s.c., poor responders, 0 h (baseline)); 196 mg/dL and 162 mg/dL in the series with diabetics [2] (20 units s.c., poor responders, 1 h); 186 mg/dL and 180 mg/dL in the series with diabetics [2] (20 units s.c., poor responders, 2 h); 180 mg/dL in the series with diabetics [2] (20 units s.c., poor responders, 3 h); 201 mg/dL in the series on diabetics [4] (15 Units, case 1 NIDDM, 0 h (baseline)). Besides, the “Blood Sugar” value is 198 mg/dL with diabetics [4] (15 Units, case 1 NIDDM, 1 h); 185 mg/dL in the series with diabetics [4] (15 Units, case 1 NIDDM, 4 h); 194 mg/dL in the series with diabetics [4] (20 Units, case 8 NIDDM, 3 h); 176 mg/dL with diabetics [4] (20 Units, case 8 NIDDM, 4 h); 151 mg/dL and 218 mg/dL with diabetics [4] (20 Units, cases 6 and 8, 0 h (baseline)); 124 mg/dL and 200 mg/dL in the series on diabetics [4] (20 Units, cases 6 and 8, 2 h). For the same molecule, the “Blood Sugar (Table 3)” value with diabetics [2] (setting [6]) is 171 mg/dL; in the series on diabetics [2] (setting [7]), 152 mg/dL; in the series with diabetics [2] (setting [8]), 122 mg/dL; in the series on diabetics [2] (15 Units s.c., case 18 IDDM, 3.0 h), 207 mg/dL; with diabetics [2] (15 Units s.c., case 18 IDDM, […]), 131 mg/dL; with diabetics [2] (20 Units s.c., case 10 NIDDM, 0 h (baseline)) it was 157 mg/dL. Besides, the “Blood Sugar (Table 3)” value amounted to 102 mg/dL in the series on diabetics [2] (20 Units s.c., case 10 NIDDM, 0.5 h); 106 mg/dL with diabetics [2] (20 Units s.c., case 10 NIDDM, 3.0 h); 77 mg/dL with diabetics [2] (20 Units s.c., case 10 NIDDM, […]). In addition, the “Serum Insulin” value in series [3] (setting [9]) came to 30 micro-Units/ml; in series [3] (setting [10]), 47 micro-Units/ml; in series [3] (setting [11]) it was 112 micro-Units/ml; in series [3] (setting [12]), 115 micro-Units/ml; in series [3] (setting [13]), 159 micro-Units/ml; in series [3] (setting [14]), 78 micro-Units/ml. The “Serum Insulin” value is 45 micro-Units/ml in series [3] (setting [15]); 10 micro-U/ml in series [5] (setting [6]); 57 micro-U/ml in series [5] (setting [7]); 184 micro-U/ml in series [5] (setting [8]); 64 micro-U/ml in series [5] (15 Units s.c., case 18 IDDM, 4.0 h); 19 micro-U/ml in series [5] (20 Units s.c., case 10 NIDDM, 1.0 h). The “Serum Insulin” value in series [5] (20 Units s.c., case 10 NIDDM, 2.0 h) is recorded as 11 micro-U/ml. In addition, in the series with diabetics [4], the “response of case numbers 1 and 8 (in words)” value was “poor responders”. For the same molecule, the “Blood Sugar (Table 6)” value in the series with diabetics [4] (setting [9]) came to 188 mg/dL; with diabetics [4] (setting [10]) it was 181 mg/dL; with diabetics [4] (setting [11]) it was 160 mg/dL; in the series with diabetics [4] (setting [12]) it was 139 mg/dL; in the series with diabetics [4] (20 Units s.c., case 11 IDDM, 0 h (baseline)), 308 mg/dL; in the series on diabetics [4] (setting [13]), 181 mg/dL. Moreover, the “Blood Sugar (Table 6)” value in the series with diabetics [4] (setting [14]) came to 87 mg/dL; in the series on diabetics [4] (setting [15]), 115 mg/dL.

As to `CCCNC(=O)NS(=O)(=O)c1ccc(Cl)cc1` [Diabenase], the “Blood Sugar” value in the series with diabetics [4] (500 mg per os, case 1 NIDDM, 0 h (baseline)) was 186 mg/dL; in the series with diabetics [4] (500 mg per os, case 8 NIDDM, 1 h), 222 mg/dL; in the series on diabetics [4] (500 mg per os, case 8 NIDDM, 2 h), 205 mg/dL; with diabetics [4] (500 mg per os, cases 1 and 8 NIDDM, 3 h) it was 164 mg/dL and 174 mg/dL. Also, the “response of case numbers 1 and 8 (in words)” value in the series with diabetics [4] was “poor responders”.

Sorbitan monolaurate: the LD50 in series [1] was 41000 mg/kg.

With Sorbitan monooleate, the median lethal dose (LD50) in series [1] was over 40000 mg/kg.

Sorbitan monostearate: the LD50 in series [1] is 31000 mg/kg.

As for Sorbitan tristearate, in series [1], the LD50 was over 16000 mg/kg.

Source of the values: US5656289A, “Pharmaceutical formulations that have a biologically active hydrophilic phase and a chylomicra-containing hydrophobic phase” (priority 1988, dated 1997).
